Measurements taken from US20250082765A1, “MOLECULES AS ANTICANCER AGENTS FOR TARGETED TREATMENT OF BREAST AND PROSTATE CANCER” (priority 2021, published 2025).

How the values were obtained:
in vivo = settings: albino, mouse, intravenous
Protocol: (§1) The route of administration incorporated for ester of citric acid with capecitabine and estrogen and ester of citric acid with capecitabine and dihydrotestosterone is through intravenous (IV) bolus.
(§2) The biodistribution analysis was carried out for capecitabine in plasma. […] The biodistribution analysis was carried out in breast tissue for females and in prostate gland for males along with several other organs including blood, liver, lungs and spleen.
(§3) The biodistribution analysis was carried out in three groups of albino mice. The female albino mice of age 7-8 weeks and weight 19g-35g were analyzed for the distribution of capecitabine in breast tissue. The male albino mice of age 7-8 weeks and weight 20g-30g were analyzed for the distribution of capecitabine in prostate gland. The study groups comprised of 3 groups including group 1, group 2 and group 3. The study group 1 comprised 6 mice receiving normal control, study group 2 comprised 6 mice receiving pure drug solution and study group 3 comprised 6 mice receiving molecule of formula (I) anticancer drug.
(§4) The analysis of capecitabine in plasma was initiated by liquid-liquid extraction using ethyl acetate. The extraction was carried out on ethylene bridged hybrid (BEH) C18 (100×2.1 mm, 1.7 μm) column. An isocratic flow rate of 0.5 ml/min of acetonitrile (0.1%) and 0.002M ammonium acetate as mobile phase was incorporated. Mass spectrometry analysis was carried out in multiple reaction monitoring modes. The precursor to product ion transitions with mass to ion (m/z) ratio of 360.04 to 244.08 was found for capecitabine. […] The biodistribution data for capecitabine was obtained for concentrations ranging from 5 ng/ml and 40 ng/ml.
(§5) The biodistribution of capecitabine was also analyzed for several other organs such as blood, liver, lungs and the spleen. […] The biodistribution of capecitabine was analyzed at time intervals of 0.5 hours, 1 hour and 2 hours. The biodistribution data was recorded for 6 mice.

[1] = Biodistribution analysis of capecitabine in other organs (blood, liver, lungs, spleen) of mice; settings: later hours (1 hour, 2 hours)
Protocol: as §1, §2, §3, §4, §5

concentration at 0.5 h (in vivo; liver): 13 ng/mL | concentration at 0.5 h (in vivo; lungs): 12.5 ng/mL | concentration at 0.5 h (in vivo; spleen): 12.1 ng/mL | concentration at 0.5 h (in vivo; whole blood): 13.6 ng/mL | biodistribution of capecitabine in blood [1]: negligible | biodistribution of capecitabine in liver [1]: negligible | biodistribution of capecitabine in lungs [1]: negligible | biodistribution of capecitabine in spleen [1]: negligible
SMILES: CCCCCOC(=O)Nc1nc(=O)n([C@@H]2O[C@H](C)[C@@H](O)[C@H]2O)cc1F [capecitabine]
